Results from patent publication US9938273B2 (Plexxikon Inc., priority 2015, dated 2018).

test system: MOLM-14 D835Y cells, FLT3 ITD and FLT3 D835Y; test: Cell proliferation assay (CellTiter-Glo), MOLM-14 D835Y; type: cell-based; conditions: Homo sapiens, 72 h, 3d-Growth, GMean
Procedure, shortened: (§1)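 Three-day growth at 37 °C, 5% CO2 under compound (1 μM top final, 1:3 dilutions, eight points, 0.2% DMSO), read as ATP luminescence by CellTiter-Glo for IC50. Cells: MOLM-14 with FLT3 ITD plus D835Y or F691L, and IL-3-deprived Ba/F3 transfected with FLT3 ITD/D835Y, 1×10^4 per well.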

IC50	Compound
0.0001 to 10 µM	CC(C)Oc1ccc(-c2cc3cc(-c4cccc(C(=O)NC(C)(C)C#N)n4)cnc3[nH]2)cn1 [Compound P-0190, N-(1-cyano-1-methyl-ethyl)-6-[2-(6-isopropoxy-3-pyridyl)-1H-pyrrolo[2,3-b]pyridin-5-yl]pyridine-2-carboxamide]
0.0001 to 10 µM	CC(C)Oc1ncc(-c2cc3cc(-c4cccc(C(=O)NC(C)(C)C#N)n4)cnc3[nH]2)cn1 [Compound P-0191, N-(1-cyano-1-methyl-ethyl)-6-[2-(2-isopropoxypyrimidin-5-yl)-1H-pyrrolo[2,3-b]pyridin-5-yl]pyridine-2-carboxamide]
0.0001 to 10 µM	Cc1nn(C(C)C)cc1-c1[nH]c2ncc(-c3cccc(C(=O)NC(C)(C)C#N)n3)cc2c1Cl [Compound P-0192]
0.0001 to 10 µM	CC(C)(C#N)NC(=O)c1cccc(-c2cnc3[nH]c(-c4cnn(CC(F)(F)F)c4)cc3c2)n1 [Compound P-0193, N-(1-cyano-1-methyl-ethyl)-6-[2-[1-(2,2,2-trifluoroethyl)pyrazol-4-yl]-1H-pyrrolo[2,3-b]pyridin-5-yl]pyridine-2-carboxamide]
0.0001 to 10 µM	CC(C)(C#N)NC(=O)c1cccc(-c2cnc3[nH]c(-c4ccc(C5(C#N)CC5)cc4)cc3c2)n1 [Compound P-0194, 6-[2-[4-(1-cyanocyclopropyl)phenyl]-1H-pyrrolo[2,3-b]pyridin-5-yl]-N-(1-cyano-1-methyl-ethyl)pyridine-2-carboxamide]
0.0001 to 10 µM	CC(C)(C#N)NC(=O)c1cccc(-c2cnc3[nH]c(-c4cncnc4)cc3c2)n1 [Compound P-0195, N-(1-cyano-1-methyl-ethyl)-6-(2-pyrimidin-5-yl-1H-pyrrolo[2,3-b]pyridin-5-yl)pyridine-2-carboxamide]
0.0001 to 10 µM	COc1ncc(-c2cc3cc(-c4cccc(C(=O)NC(C)(C)C#N)n4)cnc3[nH]2)cn1 [Compound P-0196, N-(1-cyano-1-methyl-ethyl)-6-[2-(2-methoxypyrimidin-5-yl)-1H-pyrrolo[2,3-b]pyridin-5-yl]pyridine-2-carboxamide]
0.0001 to 10 µM	CC(C)(C#N)NC(=O)c1cccc(-c2cnc3[nH]c(-c4ccc(N5CCOCC5)nc4)cc3c2)n1 [Compound P-0197, N-(1-cyano-1-methyl-ethyl)-6-[2-(6-morpholino-3-pyridyl)-1H-pyrrolo[2,3-b]pyridin-5-yl]pyridine-2-carboxamide]
0.0001 to 10 µM	CC(C)(C#N)NC(=O)c1cccc(-c2cnc3[nH]c(-c4cnc(N5CCOCC5)nc4)cc3c2)n1 [Compound P-0198, N-(1-cyano-1-methyl-ethyl)-6-[2-(2-morpholinopyrimidin-5-yl)-1H-pyrrolo[2,3-b]pyridin-5-yl]pyridine-2-carboxamide]
0.0001 to 10 µM	CC(C)(C#N)NC(=O)c1cccc(-c2cnc3[nH]c(-c4cccc(N5CCCS5(=O)=O)c4)cc3c2)n1 [Compound P-0199, N-(1-cyano-1-methyl-ethyl)-6-[2-[3-(1,1-dioxo-1,2-thiazolidin-2-yl)phenyl]-1H-pyrrolo[2,3-b]pyridin-5-yl]pyridine-2-carboxamide]
0.0001 to 10 µM	CC(C)(NC(=O)c1cccc(-c2cnc3[nH]c(-c4cnn(C5CCNCC5)c4)cc3c2)n1)C(N)=O [Compound P-0200, N-(2-amino-1,1-dimethyl-2-oxo-ethyl)-6-[2-[1-(4-piperidyl)pyrazol-4-yl]-1H-pyrrolo[2,3-b]pyridin-5-yl]pyridine-2-carboxamide]
0.0001 to 10 µM	CC(C)(C#N)NC(=O)c1cccc(-c2cnc3[nH]c(-c4ccc(C(F)(F)F)nc4)cc3c2)n1 [Compound P-0201, N-(1-cyano-1-methyl-ethyl)-6-[2-[6-(trifluoromethyl)-3-pyridyl]-1H-pyrrolo[2,3-b]pyridin-5-yl]pyridine-2-carboxamide]
0.0001 to 10 µM	CC(C)(C#N)NC(=O)c1cccc(-c2cnc3[nH]c(-c4cnc(N5CCCC5)nc4)cc3c2)n1 [Compound P-0202, N-(1-cyano-1-methyl-ethyl)-6-[2-(2-pyrrolidin-1-ylpyrimidin-5-yl)-1H-pyrrolo[2,3-b]pyridin-5-yl]pyridine-2-carboxamide]
0.0001 to 10 µM	CCOc1ncc(-c2cc3cc(-c4cccc(C(=O)NC(C)(C)C#N)n4)cnc3[nH]2)cn1 [Compound P-0203, N-(1-cyano-1-methyl-ethyl)-6-[2-(2-ethoxypyrimidin-5-yl)-1H-pyrrolo[2,3-b]pyridin-5-yl]pyridine-2-carboxamide]
0.0001 to 10 µM	CC(C)(C#N)NC(=O)c1cccc(-c2cnc3[nH]c(-c4cnc(C(F)(F)F)nc4)cc3c2)n1 [Compound P-0204, N-(1-cyano-1-methyl-ethyl)-6-[2-[2-(trifluoromethyl)pyrimidin-5-yl]-1H-pyrrolo[2,3-b]pyridin-5-yl]pyridine-2-carboxamide]
0.0001 to 10 µM	CCc1ncc(-c2cc3cc(-c4cccc(C(=O)NC(C)(C)C#N)n4)cnc3[nH]2)cn1 [Compound P-0205, N-(1-cyano-1-methyl-ethyl)-6-[2-(2-ethylpyrimidin-5-yl)-1H-pyrrolo[2,3-b]pyridin-5-yl]pyridine-2-carboxamide]
0.0001 to 10 µM	CCCOc1ncc(-c2cc3cc(-c4cccc(C(=O)NC(C)(C)C#N)n4)cnc3[nH]2)cn1 [Compound P-0206, N-(1-cyano-1-methyl-ethyl)-6-[2-(2-propoxypyrimidin-5-yl)-1H-pyrrolo[2,3-b]pyridin-5-yl]pyridine-2-carboxamide]
0.0001 to 10 µM	CC(C)(C#N)NC(=O)c1cccc(-c2cnc3[nH]c(-c4ccc(F)nc4)cc3c2)n1 [Compound P-0208, N-(1-cyano-1-methyl-ethyl)-6-[2-(6-fluoro-3-pyridyl)-1H-pyrrolo[2,3-b]pyridin-5-yl]pyridine-2-carboxamide]
0.0001 to 10 µM	CC(C)(C#N)NC(=O)c1cccc(-c2cnc3[nH]c(-c4cnc(C(C)(C)O)nc4)cc3c2)n1 [Compound P-0211, N-(1-cyano-1-methyl-ethyl)-6-[2-[2-(1-hydroxy-1-methyl-ethyl)pyrimidin-5-yl]-1H-pyrrolo[2,3-b]pyridin-5-yl]pyridine-2-carboxamide]

molecular target: T1, BA/F3-FLT3-ITD + D835Y cells (Homo sapiens, UniProt P36888, D835Y, cells depend on it, form not given); test: Cell proliferation assay (CellTiter-Glo), engineered BA/F3 cells; type: cell-based, murine; conditions: BaF3 FLT3 ITD/D835Y cells, 3d-Growth; read-out: BaF3_FLT3 ITD/D835Y 3d-Growth: IC50
T1 sequence (P36888 1-993 D835Y): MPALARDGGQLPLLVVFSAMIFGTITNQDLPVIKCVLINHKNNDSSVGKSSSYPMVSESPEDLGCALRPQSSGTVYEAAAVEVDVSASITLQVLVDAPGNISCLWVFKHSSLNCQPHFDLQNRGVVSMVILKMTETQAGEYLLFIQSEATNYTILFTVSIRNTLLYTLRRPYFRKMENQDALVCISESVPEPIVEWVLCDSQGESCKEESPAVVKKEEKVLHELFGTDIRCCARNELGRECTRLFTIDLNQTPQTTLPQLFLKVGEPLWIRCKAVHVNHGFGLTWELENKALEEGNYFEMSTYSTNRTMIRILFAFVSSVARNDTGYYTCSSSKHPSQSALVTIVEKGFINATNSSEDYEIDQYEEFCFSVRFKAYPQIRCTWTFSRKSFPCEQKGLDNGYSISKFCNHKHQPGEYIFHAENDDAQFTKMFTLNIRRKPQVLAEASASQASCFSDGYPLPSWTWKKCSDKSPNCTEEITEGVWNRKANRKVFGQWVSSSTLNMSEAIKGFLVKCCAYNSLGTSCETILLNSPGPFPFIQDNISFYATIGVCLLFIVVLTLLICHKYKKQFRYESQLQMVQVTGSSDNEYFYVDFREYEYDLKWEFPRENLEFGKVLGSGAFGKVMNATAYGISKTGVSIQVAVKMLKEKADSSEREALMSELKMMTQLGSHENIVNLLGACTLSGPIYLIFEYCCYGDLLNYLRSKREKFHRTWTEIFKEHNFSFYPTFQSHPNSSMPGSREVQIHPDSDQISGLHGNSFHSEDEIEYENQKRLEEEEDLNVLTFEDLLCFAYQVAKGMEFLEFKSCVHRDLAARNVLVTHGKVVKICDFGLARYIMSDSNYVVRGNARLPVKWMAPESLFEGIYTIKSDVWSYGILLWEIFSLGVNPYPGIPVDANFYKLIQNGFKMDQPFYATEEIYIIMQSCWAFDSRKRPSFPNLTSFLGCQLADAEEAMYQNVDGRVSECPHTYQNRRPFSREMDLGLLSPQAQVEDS
Procedure, shortened: as §1

GI50	Compound
0.0001 to 10 µM	CONC(=O)c1cccc(-c2cnc3[nH]c(-c4ccccc4)cc3c2)c1 [Compound P-0003, N-methoxy-3-(2-phenyl-1H-pyrrolo[2,3-b]pyridin-5-yl)benzamide]
0.0001 to 10 µM	C#Cc1cc2cc(-c3cccc(S(=O)(=O)NC4CC4)c3)cnc2[nH]1 [Compound P-0004, N-cyclopropyl-3-(2-ethynyl-1H-pyrrolo[2,3-b]pyridin-5-yl)benzenesulfonamide]
0.0001 to 10 µM	NC(=O)Nc1ccc(-c2cnc3[nH]c(-c4ccccc4)cc3c2)cc1 [Compound P-0005, [4-(2-phenyl-1H-pyrrolo[2,3-b]pyridin-5-yl)phenyl]urea]
0.0001 to 10 µM	CNC(=O)Nc1ccc(-c2cnc3[nH]c(-c4ccccc4)cc3c2)cc1 [Compound P-0006, 1-methyl-3-[4-(2-phenyl-1H-pyrrolo[2,3-b]pyridin-5-yl)phenyl]urea]
0.0001 to 10 µM	CN(C)S(=O)(=O)Nc1cccc(-c2cnc3[nH]c(-c4ccccc4)cc3c2)c1 [Compound P-0007, 5-[3-(dimethylsulfamoylamino)phenyl]-2-phenyl-1H-pyrrolo[2,3-b]pyridine]
0.0001 to 10 µM	O=S(=O)(NC1CC1)c1cccc(-c2cnc3[nH]c(C#CCO)cc3c2)c1 [Compound P-0008, N-cyclopropyl-3-[2-(3-hydroxyprop-1-ynyl)-1H-pyrrolo[2,3-b]pyridin-5-yl]benzenesulfonamide]
0.0001 to 10 µM	CN(C)CC#Cc1cc2cc(-c3cccc(S(=O)(=O)NC4CC4)c3)cnc2[nH]1 [Compound P-0009, N-cyclopropyl-3-[2-[3-(dimethylamino)prop-1-ynyl]-1H-pyrrolo[2,3-b]pyridin-5-yl]benzenesulfonamide]
0.0001 to 10 µM	O=S(=O)(NC1CC1)c1cccc(-c2cnc3[nH]c(C#CC4CCCCC4)cc3c2)c1 [Compound P-0010, 3-[2-(2-cyclohexylethynyl)-1H-pyrrolo[2,3-b]pyridin-5-yl]-N-cyclopropyl-benzenesulfonamide]
0.0001 to 10 µM	CC(C)(C)OC(=O)NC1CCN(C(=O)c2n[nH]c3ccc(-c4cnc5[nH]c(-c6ccccc6)cc5c4)cc23)CC1 [Compound P-0011, tert-butyl N-[1-[5-(2-phenyl-1H-pyrrolo[2,3-b]pyridin-5-yl)-1H-indazole-3-carbonyl]-4-piperidyl]carbamate]
